According to the supplement of paper PMC10307832:

Experiments:
Experiment in all cases: relative viability (nuclei count vs DMSO), 5 days (fraction); higher = more cells survive
XMD14-99 + Pemetrexed = compound: CN1CCN(CC1)C2=CC(=C(C=C2)NC3=NC(=C(S3)C(=O)C4=C(C=CC=C4Cl)Cl)N)OC [XMD14-99] + Nc1nc2[nH]cc(CCc3ccc(C(=O)N[C@@H](CCC(=O)O)C(=O)O)cc3)c2c(=O)[nH]1 [Pemetrexed] (partner 0.2 µM)
How it was run: (§1)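 Relative viability is defined as nuclei in treated wells over nuclei in vehicle wells. Duplicate plates were run and medians reported. Lung cancer cell lines in 1536-well plates were dosed by pin tool one day after seeding, with one drug or with a fixed anchor-drug dose plus five library-drug doses (not always all listed) in √10 steps, and nuclei were counted after 5 days.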

XMD14-99 + Dasatinib = compound: CN1CCN(CC1)C2=CC(=C(C=C2)NC3=NC(=C(S3)C(=O)C4=C(C=CC=C4Cl)Cl)N)OC [XMD14-99] + Cc1nc(Nc2ncc(C(=O)Nc3c(C)cccc3Cl)s2)cc(N2CCN(CCO)CC2)n1 [Dasatinib] (partner 0.075 µM)
How it was run: as §1

AZD1208 + Lapatinib = compound: N[C@@H]1CCCN(c2c(/C=C3\SC(=O)NC3=O)cccc2-c2ccccc2)C1 [AZD1208] + CS(=O)(=O)CCNCc1ccc(-c2ccc3ncnc(Nc4ccc(OCc5cccc(F)c5)c(Cl)c4)c3c2)o1 [Lapatinib] (partner 2 µM)
How it was run: as §1

XMD14-99 + Linsitinib = compound: CN1CCN(CC1)C2=CC(=C(C=C2)NC3=NC(=C(S3)C(=O)C4=C(C=CC=C4Cl)Cl)N)OC [XMD14-99] + C[C@]1(O)C[C@@H](c2nc(-c3ccc4ccc(-c5ccccc5)nc4c3)c3c(N)nccn32)C1 [Linsitinib] (partner 1 µM)
How it was run: as §1

Cell Line | relative viability (XMD14-99 + Pemetrexed; first compound 0.08 µM) | relative viability (XMD14-99 + Pemetrexed; first compound 0.8 µM) | relative viability (XMD14-99 + Pemetrexed; first compound 2.53 µM) | relative viability (XMD14-99 + Pemetrexed; first compound 8 µM) | relative viability (XMD14-99 + Dasatinib; first compound 0.08 µM) | relative viability (XMD14-99 + Dasatinib; first compound 0.8 µM) | relative viability (XMD14-99 + Dasatinib; first compound 2.53 µM) | relative viability (XMD14-99 + Dasatinib; first compound 8 µM) | relative viability (AZD1208 + Lapatinib; first compound 0.08 µM) | relative viability (AZD1208 + Lapatinib; first compound 0.253 µM) | relative viability (AZD1208 + Lapatinib; first compound 0.8 µM) | relative viability (AZD1208 + Lapatinib; first compound 2.53 µM) | relative viability (AZD1208 + Lapatinib; first compound 8 µM) | relative viability (XMD14-99 + Linsitinib; first compound 0.08 µM) | relative viability (XMD14-99 + Linsitinib; first compound 0.8 µM) | relative viability (XMD14-99 + Linsitinib; first compound 2.53 µM) | relative viability (XMD14-99 + Linsitinib; first compound 8 µM)
NCI-H2342 | 0.785 | 0.748 | 0.815 | 0.762 | 0.29 | 0.292 | 0.354 | 0.285 |  |  |  |  |  |  |  |  | 
SK-MES-1 | 0.939 | 0.833 | 0.882 | 0.659 | 0.381 | 0.398 | 0.336 | 0.225 | 0.407 | 0.418 | 0.421 | 0.415 | 0.374 | 1.08 | 1.04 | 1.03 | 0.754
NCI-H1993 | 0.708 | 0.541 | 0.524 | 0.448 | 0.656 | 0.539 | 0.457 | 0.489 |  | 0.749 | 0.689 | 0.794 | 0.75 | 0.684 | 0.66 | 0.659 | 0.749
HCC-366 | 0.219 | 0.18 | 0.18 | 0.128 | 0.596 | 0.609 | 0.603 | 0.528 | 1.06 | 1.17 | 0.951 | 1.13 | 0.933 | 0.619 | 0.641 | 0.781 | 0.602
201T | 0.331 | 0.356 | 0.32 | 0.281 | 0.593 | 0.618 | 0.546 | 0.523 | 1.03 | 0.992 | 1.04 | 1.08 | 0.913 | 1.05 | 1.02 | 0.995 | 1
HCC-827 | 0.214 | 0.255 | 0.265 | 0.218 | 0.322 | 0.281 | 0.309 | 0.256 | 0.15 | 0.192 | 0.189 | 0.173 | 0.226 | 0.991 | 0.86 | 0.828 | 0.802
NCI-H650 | 0.932 | 1.03 | 0.929 | 0.961 | 0.467 | 0.422 | 0.451 | 0.356 | 1.06 | 0.771 | 1.06 | 0.648 | 0.817 | 1.08 | 0.906 | 0.77 | 0.675
NCI-H2085 | 0.9 | 0.899 | 0.839 | 0.65 | 0.267 | 0.261 | 0.273 | 0.241 | 0.768 | 0.862 | 0.7 | 0.687 | 0.726 | 0.872 | 0.86 | 0.784 | 0.667
NCI-H596 | 0.465 | 0.48 | 0.447 | 0.494 | 0.597 | 0.604 | 0.572 | 0.562 | 1.05 | 1.1 | 0.967 | 0.984 | 0.835 | 1.06 | 1.05 | 1.08 | 1.04
SK-LU-1 | 0.98 | 1.02 | 0.942 | 0.684 | 0.182 | 0.204 | 0.181 | 0.163 | 0.802 | 0.864 | 0.826 | 0.831 | 0.839 | 0.872 | 1.2 | 1.07 | 0.671
A-427 | 0.952 | 0.946 | 0.892 | 0.645 | 0.624 | 0.651 | 0.545 | 0.479 | 1.11 | 0.988 | 0.843 | 1.15 | 0.815 | 1.15 | 1.08 | 1.01 | 0.904
NCI-H460 | 0.067 | 0.066 | 0.07 | 0.0715 | 0.497 | 0.545 | 0.475 | 0.475 | 1.03 | 1.71 | 0.867 | 1.01 | 0.964 | 0.685 | 0.77 | 0.61 | 0.331
NCI-H1703 |  |  |  |  |  |  |  |  | 0.852 | 1.04 | 0.804 | 1.05 | 0.626 | 0.843 | 0.888 | 0.752 | 0.57
NCI-H1792 | 1.03 | 0.72 | 0.68 | 0.529 | 0.73 | 0.71 | 0.631 | 0.503 | 0.874 | 0.999 | 0.885 | 0.908 | 0.757 | 0.637 | 0.522 | 0.432 | 0.311
Calu-6 |  |  |  |  |  |  |  |  | 1.04 | 1.19 | 1.04 | 1.08 | 1.03 | 0.918 | 0.918 | 0.883 | 0.732
SW 1573 | 0.726 | 0.847 | 0.788 | 0.776 | 0.401 | 0.42 | 0.52 | 0.325 | 1.02 | 1.07 | 0.959 | 1.01 | 1.05 | 0.723 | 0.785 | 0.782 | 0.885
RERF-LC-KJ | 0.469 | 0.506 | 0.452 | 0.449 | 0.883 | 0.869 | 0.764 | 0.608 | 0.819 | 0.896 | 0.698 | 0.679 | 0.562 | 0.878 | 0.888 | 0.873 | 0.743
